Experimental data as given in patent US20250026766A1, “Thiazolopyridyl Amide Derivatives as DNA Polymerase Theta Inhibitors” (BeiGene, Ltd., priority 2022, published 2025).
pIC50: −log10 of the molar value.

Molecular target: Pol Theta (1-894) (Homo sapiens (Human), UniProt O75417)
Assay: Biochemical Pol Theta (1-894) ATPase IC50 assay (ADP-Glo, ssDNA substrate)
Conditions: ADP-Glo assay with ssDNA substrate, room temperature
Outline: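 His-tagged human Pol Theta 1-894 from Sf9 baculovirus cells, 2× enzyme solution at 12.5 nM, assayed with ssDNA substrate at room temperature in 40 mM Tris pH 7.5, 20 mM MgCl2, 1 mM DTT, 0.01% BSA, 0.05% Tween-20.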

Sequence of Pol Theta (1-894) (O75417 1-894): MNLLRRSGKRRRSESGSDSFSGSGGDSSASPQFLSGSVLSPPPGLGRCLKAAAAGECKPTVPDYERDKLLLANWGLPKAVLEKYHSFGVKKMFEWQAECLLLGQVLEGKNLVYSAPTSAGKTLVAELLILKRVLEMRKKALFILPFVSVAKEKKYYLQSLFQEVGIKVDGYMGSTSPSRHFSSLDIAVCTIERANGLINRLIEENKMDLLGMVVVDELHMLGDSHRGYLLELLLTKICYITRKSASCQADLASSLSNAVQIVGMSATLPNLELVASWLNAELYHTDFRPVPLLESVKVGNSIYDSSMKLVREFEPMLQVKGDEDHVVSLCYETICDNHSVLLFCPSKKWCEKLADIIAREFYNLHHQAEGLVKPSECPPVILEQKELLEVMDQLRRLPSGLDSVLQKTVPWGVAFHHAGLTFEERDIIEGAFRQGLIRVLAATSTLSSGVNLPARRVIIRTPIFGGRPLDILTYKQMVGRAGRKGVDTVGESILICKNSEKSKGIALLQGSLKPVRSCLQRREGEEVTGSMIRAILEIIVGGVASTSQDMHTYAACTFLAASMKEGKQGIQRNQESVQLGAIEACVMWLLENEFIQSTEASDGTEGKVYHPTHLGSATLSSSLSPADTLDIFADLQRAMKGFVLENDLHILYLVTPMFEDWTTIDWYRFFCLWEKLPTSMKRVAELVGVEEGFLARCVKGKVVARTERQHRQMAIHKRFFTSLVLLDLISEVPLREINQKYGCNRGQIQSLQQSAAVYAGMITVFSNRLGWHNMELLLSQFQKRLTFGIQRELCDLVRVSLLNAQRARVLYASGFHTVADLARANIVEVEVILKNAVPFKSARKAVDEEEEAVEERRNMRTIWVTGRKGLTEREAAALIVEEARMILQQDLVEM

Row | pIC50 | SMILES
1 | 8.30 | COc1ccccc1-c1cnncc1C(=O)Nc1nc2ccc(-c3ccc(Cl)cn3)nc2s1 [Example 55, N-(5-(5-chloropyridin-2-yl)thiazolo[5,4-b]pyridin-2-yl)-5-(2-methoxyphenyl)pyridazine-4-carboxamide]
2 | 7.14 | COc1ccc(C#N)cc1-c1cc(C)ncc1C(=O)Nc1nc2ccc(-c3ccc(C(=O)NC(C)C)cc3)nc2s1 [Example 74, 4-(5-cyano-2-methoxyphenyl)-N-(5-(4-(isopropylcarbamoyl)phenyl)thiazolo[5,4-b]pyridin-2-yl)-6-methylnicotinamide]
3 | 7.09 | COc1ccc(C#N)cc1-c1cc(C)ncc1C(=O)Nc1nc2ccc(-c3ccc(C(N)=O)cc3)nc2s1 [Example 21, N-(5-(4-carbamoylphenyl)thiazolo[5,4-b]pyridin-2-yl)-4-(5-cyano-2-methoxyphenyl)-6-methylnicotinamide]
4 | 7.89 | COc1ccc(C#N)cc1-c1cc(C)ncc1C(=O)Nc1nc2ccc(-c3ccc(CC#N)c(C)c3)nc2s1 [Example 171, 4-(5-cyano-2-methoxyphenyl)-N-(5-(4-(cyanomethyl)-3-methylphenyl)thiazolo[5,4-b]pyridin-2-yl)-6-methylnicotinamide]
5 | 7.68 | COc1ccccc1-c1cnncc1C(=O)Nc1nc2ccc(-c3ccc(Cl)c(C)c3C)nc2s1 [Example 139, N-(5-(4-chloro-2,3-dimethylphenyl)thiazolo[5,4-b]pyridin-2-yl)-5-(2-methoxyphenyl)pyridazine-4-carboxamide]
6 | 7.66 | COc1cccc(Cl)c1-c1cc(C)ncc1C(=O)Nc1nc2ccc(-c3ccc(C#N)cc3)nc2s1 [Example 146, 4-(2-chloro-6-methoxyphenyl)-N-(5-(4-cyanophenyl)thiazolo[5,4-b]pyridin-2-yl)-6-methylnicotinamide]
7 | 7.24 | COc1ccc(C2CC2)cc1-c1cc(C)ncc1C(=O)Nc1nc2ccc(-c3ccc(C#N)cc3)nc2s1 [Example 57, N-(5-(4-cyanophenyl)thiazolo[5,4-b]pyridin-2-yl)-4-(5-cyclopropyl-2-methoxyphenyl)-6-methylnicotinamide]
8 | 8.19 | COc1cccc(F)c1-c1cc(C)ncc1C(=O)Nc1nc2ccc(-c3ccc(C#N)cc3)nc2s1 [Example 104, N-(5-(4-cyanophenyl)thiazolo[5,4-b]pyridin-2-yl)-4-(2-fluoro-6-methoxyphenyl)-6-methylnicotinamide]
9 | 7.68 | COc1ccccc1-c1cnncc1C(=O)Nc1nc2ccc(Oc3ccc(C#N)cc3)nc2s1 [Example 152, N-(5-(4-cyanophenoxy)thiazolo[5,4-b]pyridin-2-yl)-5-(2-methoxyphenyl)pyridazine-4-carboxamide]
10 | 7.96 | COc1ccc(C#N)cc1-c1cc(C)ncc1C(=O)Nc1nc2ccc(-c3ccc(NS(C)(=O)=O)cc3)nc2s1 [Example 18, 4-(5-cyano-2-methoxyphenyl)-6-methyl-N-(5-(4-(methylsulfonamido)phenyl)thiazolo[5,4-b]pyridin-2-yl)nicotinamide]
11 | 7.44 | COc1cc(-c2ccc3nc(NC(=O)c4cnc(C)cc4-c4cc(C#N)ccc4OC)sc3n2)ccc1C#N [Example 161, 4-(5-cyano-2-methoxyphenyl)-N-(5-(4-cyano-3-methoxyphenyl)thiazolo[5,4-b]pyridin-2-yl)-6-methylnicotinamide]
12 | 8.08 | COc1ccc(S(C)(=O)=O)cc1-c1cc(C)ncc1C(=O)Nc1nc2ccc(-c3ccc(C#N)cc3)nc2s1 [Example 52, N-(5-(4-cyanophenyl)thiazolo[5,4-b]pyridin-2-yl)-4-(2-methoxy-5-(methylsulfonyl)phenyl)-6-methylnicotinamide]
13 | 7.43 | COc1ccc(C#N)cc1-c1cc(C)ncc1C(=O)Nc1nc2ccc(-c3ccc(N4CCCC4=O)nc3)nc2s1 [Example 164, 4-(5-cyano-2-methoxyphenyl)-6-methyl-N-(5-(6-(2-oxopyrrolidin-1-yl)pyridin-3-yl)thiazolo[5,4-b]pyridin-2-yl)nicotinamide]
